pIC50: −log10 of the molar value. In brackets after ≈: the same amount, converted by molar mass. Read-outs that look alike come from different tables or passages of the source.
Tests used:
[1] = biological target: T1, S. aureus RNase P (RnpA + rnpB) (Staphylococcus aureus, UniProt P0A0H5); test: RnpA-dependent RNase P in vitro ptRNA^Tyr processing assay; format: biochemical; settings: for IC50: SAR figures, read-out: pIC50 = processing IC50 (converted)
T1 construct: hexahistidine (His6) (N); made in house; host or cells: E. coli BL21 (DE3), plasmid pEXP5-nt
T1 sequence (P0A0H5 1-117): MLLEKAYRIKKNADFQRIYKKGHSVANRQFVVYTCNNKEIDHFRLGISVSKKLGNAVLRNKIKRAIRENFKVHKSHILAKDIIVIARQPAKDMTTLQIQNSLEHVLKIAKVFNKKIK
Experimental: S. aureus RNase P activity assays were performed according to conditions described previously. Briefly, ptRNA^Tyr and rnpB RNA species were first denatured by heating to 95 °C for 5 min then slow cooled to room temperature. RNase P was reconstituted by mixing an equal molar ratio of rnpB and RnpA for 15 min at 37 °C. Precursor tRNA processing inhibition reactions were performed by mixing 1.25 pmol of reconstituted RNase P (RnpA + rnpB) with an equal volume of 2× low salt buffer (50 mM Tris-HCl pH 8.0, 5 mM MgCl2) in the presence of DMSO (negative control) or the indicated compound (≤500 µM) and incubated for 5 min at 37 °C. 5 pmol ptRNA^Tyr was added and the mixture was incubated at 37 °C 15 min. Reactions were stopped by adding 2× RNA loading dye and heating at 65 °C for 10 min. Each sample was electrophoresed in a 7 M urea/8% polyacrylamide gel then stained with ethidium bromide. The Biorad EZ Gel Doc imaging system was used to visualize the RNA and relative abundance of the mature tRNA^Tyr band (% processing) in the negative control or in samples containing the indicated compounds and analyzed using Biorad Image Lab densitometry software. The inhibitory activity of the indicated compounds were calculated as a % inhibition using the following equation: […].
To assess IC50, % RNase P processing inhibition was plotted against compound concentration and a linear best fit equation was generated to calculate the IC50.

S. aureus RnpA = biological target: T2, S. aureus RnpA (Staphylococcus aureus, UniProt P0A0H5); test: RnpA-mediated in vitro spa mRNA degradation assay; format: biochemical
T2 construct: hexahistidine (His6) (N); made in house; host or cells: E. coli BL21 (DE3), plasmid pEXP5-nt
T2 sequence (P0A0H5 1-117): T1 sequence (P0A0H5 1-117)
Experimental: RnpA-mediated RNA degradation assays were performed as previously described. Briefly, 1 pmol of spa mRNA was incubated with 5 pmol RnpA at 37 °C for 30 min in reaction buffer (50 mM Tris-HCl pH 8.0, 2 mM NaCl, 2 mM MgCl2) in the absence or presence of the indicated compound (≤500 µM). The inhibitory effects of the test compounds were calculated using Biorad ImageLab densitometry software to measure the signal intensity of the spa band in the negative control (spa alone), positive control (RnpA + spa + DMSO), and experimental samples (RnpA + spa + test compound) separated on a 1.2% formaldehyde-agarose gel. Background signal from the positive control sample sometimes resulted due to incomplete degradation of transcripts. Thus, the signal intensity of the positive control was taken into account when calculating the percent inhibition. The raw signals from the positive (+RnpA) and negative (-RnpA) controls were converted into percentage, by normalizing the positive control (+RnpA) signal to 0% RnpA inhibition and the negative control (-RnpA) to 100% RnpA inhibition. Similarly, the raw signals from the test compounds were reported as percent RnpA inhibition using the following equation: [(experimental−positive control)/(negative control−positive control)] × 100. […] To assess IC50, % RnpA degradation inhibition was plotted against compound concentration; a linear best fit equation was generated and utilized to calculate the IC50.

S. aureus UAMS-1 = test: Minimum inhibitory concentration (MIC) testing; format: cell-based, Staphylococcus aureus
Experimental: Minimum inhibitory concentration (MIC) testing was performed using to Clinical & Laboratory Standards Institute (CLSI) guidelines. Accordingly, individual wells of a 96-well microtiter plate were inoculated with 10^4 colony forming units (CFU) of S. aureus UAMS-1 containing two-fold increasing concentrations (0 to 256 μg·mL^−1) of the indicated antibiotic or putative RnpA inhibitor compound, and incubated at 37 °C for 16 h in MHB. The MIC was defined as the lowest concentration of compound in which there was no visible bacterial growth in the well.

HepG2 cells = test: MTT human cell cytotoxicity testing; format: cell-based; settings: 4× MIC exposure for 24 h; for % HepG2 Cell Survival: MTT; for MTT = % HepG2 cell survival: SAR figures
Experimental: Human HepG2 hepatocytes were seeded in individual wells of a 96-well cell-culture treated microtiter plate at a concentration of 1 × 10^5 cells per well and incubated in Dulbecco’s Modified Eagle Medium (DMEM) supplemented with 10% fetal bovine serum at 37 °C with 5% carbon dioxide overnight. Cells were then treated with DMSO (negative control) or the indicated agent for 24 h. MTT Cell Proliferation Assay Kits were used to assess viability according to the manufacturer’s recommendations (American Type Culture Collection; Manassas, VA, USA).

[2] = in vitro ptRNA^Tyr processing, read-out: Processing IC50
[3] = SAR figures, read-out: dIC50 = degradation IC50
[4] = Staphylococcus aureus, UAMS1, 16 h, S. aureus UAMS-1, 16 h in MHB, read-out: MIC
[5] = Staphylococcus aureus, UAMS1, SAR figures, S. aureus UAMS-1, read-out: MIC
[6] = Table S1, mupirocin synergy screening initial hits, read-out: processing IC50
[7] = Table S1, mupirocin synergy screening initial hits

SMILES	IC50 ([1]; in vitro ptRNA^Tyr processing) [µM]	pIC50 [1, 2]	pIC50 (S. aureus RnpA; [3])	pIC50 (S. aureus RnpA; read-out: Degradation IC50)	MIC (S. aureus UAMS-1; [4]) [µg/mL]	MIC (S. aureus UAMS-1; [5]) [µg/mL]	MTT = % HepG2 cell survival (HepG2 cells) [%]	further results
CCCN1CCN(C(=O)Nc2cc(Cl)cc(Cl)c2)CC1 [JC8]	> 500	≤ 3.35	3.35	≤ 3.35	1 (≈ 3.16 µM)	1 (≈ 3.16 µM)	109	% HepG2 Cell Survival (HepG2 cells): 109.2%
CCC1CCCCN1C(=O)Nc1ccc(Br)cc1 (stereo not shown) [JC3e]	> 500	–	< 3.30	–	> 256	> 256	–	–
CN1CCN(C(=O)Nc2cc(Cl)cc(Cl)c2)CC1 [JC6]	> 500	≤ 3.35	< 3.30	≤ 3.35	8 (≈ 27.8 µM)	8 (≈ 27.8 µM)	61.6	–
O=C(Nc1ccc(Cl)cc1)N1CCCCCC1 [JC5c]	> 500	–	< 3.30	–	> 256	> 256	–	–
O=C(Nc1ccc(Cl)cc1)c1c(NC(=O)C(F)(F)F)sc2c1CCCCC2 [JR1]	–	4.92	–	4.20	0.25 to 1 (≈ 0.6 to 2.4 µM)	0.5 (≈ 1.2 µM)	80.6	MIC (S. aureus UAMS-1; S. aureus UAMS-1, 16 h in MHB, listed as ST016037): 0.5 µg/mL (≈ 1.2 µM); MIC (S. aureus UAMS-1; Staphylococcus aureus, UAMS1, 16 h, Table S1, mupirocin synergy screening initial hits, read-out: MIC): 0.5 µg/mL; % HepG2 Cell Survival (HepG2 cells; listed as ST016037): 81%
O=C(Nc1cc(Cl)cc(Cl)c1)N1CCCCCC1 [JC5]	–	3.65	–	3.70	128 (≈ 446 µM)	128 (≈ 446 µM)	65.3	–
c1ccc(Nc2nc(-c3ccccn3)cs2)nc1 [compound 5625000]	–	–	–	–	–	–	–	pIC50 [1, 6]: < 3.30; MIC (S. aureus UAMS-1; [7]): 1.59 µg/mL
CCC1CCCCN1C(=O)Nc1ccccc1 (stereo not shown) [JC3c]	> 500	–	< 3.30	–	> 256	> 256	–	–
C/C(=C\C(=O)OCCCCCCCCC(=O)O)C[C@@H]1OC[C@H](C[C@@H]2O[C@H]2[C@@H](C)[C@H](C)O)[C@@H](O)[C@H]1O [mupirocin, reference compound]	–	–	–	–	0.125 (≈ 0.25 µM)	–	–	–
CCN1CCN(C(=O)Nc2cc(Cl)cc(Cl)c2)CC1 [JC7]	> 500	≤ 3.35	< 3.30	≤ 3.35	8 (≈ 26.5 µM)	8 (≈ 26.5 µM)	75.7	–
CC1CCCCN1C(=O)Nc1ccccc1 (stereo not shown) [JC2b]	> 500	–	< 3.30	–	> 256	> 256	–	–
Cc1ccc(NC(=O)N2CCCCC2C)cc1Cl (stereo not shown) [JC2c]	> 500	–	< 3.30	–	> 256	> 256	–	–
O=S(=O)(Nc1cccc2cccnc12)c1ccccc1 [compound 5175130]	–	–	–	–	–	–	–	pIC50 [1, 6]: < 3.30; MIC (S. aureus UAMS-1; [7]): 14.22 µg/mL
O=C(Nc1cccc(Cl)c1)N1CCCCCC1 [JC5b]	> 500	–	< 3.30	–	> 256	> 256	–	–
Cc1cccc(/C=C/c2ccc3cccc(O)c3n2)c1O [compound 6634438]	–	–	–	–	–	–	–	pIC50 [1, 6]: > 4.20; MIC (S. aureus UAMS-1; [7]): 10.40 µg/mL
CCC1CCCCN1C(=O)Nc1cccc(C)c1 (stereo not shown) [JC3f]	> 500	–	< 3.30	–	> 256	> 256	–	–
O=C(Nc1cc(Cl)cc(Cl)c1)N1CCCCC1 [JC4]	300	–	–	< 3.30	256 (≈ 937 µM)	256 (≈ 937 µM)	71.4	–
CC1CCN(C(=O)Nc2cccc(Cl)c2)CC1 [JC1b]	> 500	–	< 3.30	–	> 256	> 256	–	–
CC1CN(C(=O)Nc2cc(Cl)cc(Cl)c2)CC(C)O1 (stereo not shown) [JC9]	–	< 3.30	–	< 3.30	–	32 (≈ 106 µM)	82.5	–

Continued, in another order:

IC50 ([1]; in vitro ptRNA^Tyr processing) [µM]	pIC50 [1, 2]	pIC50 (S. aureus RnpA; [3])	pIC50 (S. aureus RnpA; read-out: Degradation IC50)	MIC (S. aureus UAMS-1; [4]) [µg/mL]	MIC (S. aureus UAMS-1; [5]) [µg/mL]	SMILES	MTT = % HepG2 cell survival (HepG2 cells) [%]	further results
80	–	3.94	–	0.25 to 1 (≈ 0.631 to 2.52 µM)	0.25 (≈ 0.631 µM)	Cc1ccc(NC(=O)c2c(NC(=O)C(F)(F)F)sc3c2CCCCC3)cc1 [JR5]	82.8	–
22	–	–	< 3.60	0.25 to 1 (≈ 0.606 to 2.42 µM)	1 (≈ 2.42 µM)	COc1ccc(NC(=O)c2c(NC(=O)C(F)(F)F)sc3c2CCCCC3)cc1 [JR6]	53.3	–
2	–	4.00	–	0.25 to 1 (≈ 0.6 to 2.4 µM)	0.5 (≈ 1.2 µM)	O=C(Nc1ccccc1Cl)c1c(NC(=O)C(F)(F)F)sc2c1CCCCC2 [JR2]	85.3	–
10	–	4.20	–	–	–	O=C(Nc1ccccc1)c1c(NC(=O)C(F)(F)F)sc2c1CCCCC2 [JR4]	–	–
–	4.60	–	3.76	64 (≈ 199 µM)	64 (≈ 199 µM)	Nc1sc2c(c1C(=O)Nc1ccc(Cl)cc1)CCCCC2 [JR1c]	54.5	–
7	–	4.60	–	0.25 to 1 (≈ 0.6 to 2.4 µM)	0.25 (≈ 0.6 µM)	O=C(Nc1cccc(Cl)c1)c1c(NC(=O)C(F)(F)F)sc2c1CCCCC2 [JR3]	90.4	–
6	–	4.46	–	–	0.5 (≈ 1.24 µM)	O=C(Nc1cccc(Cl)c1)c1c(NC(=O)C(F)(F)F)sc2c1CCCC2 [JR3b]	103.7	–
–	4.00	4.21	–	> 256	> 256	O=C(Nc1ccccc1Cl)c1c(NC(=O)C(F)(F)F)sc2c1CCCC2 [JR2b]	59.5	–
–	3.94	–	< 3.60	> 256	> 256	CC(=O)Nc1sc2c(c1C(=O)Nc1ccc(Cl)cc1)CCCCC2 [JR1b]	84.9	–
